Source: PMC9679916 (Biomacromolecules, 2021)
Bridges are numbered along the chain shown (N, C = ends). Where no end group is shown, it is not given here.

Tests used:
[1] = target: T1, human MRP-14 (hS100A9) (Homo sapiens, UniProt P06702); assay: ELISA-based binding affinity of MRP-14-targeted TMV, human protein; conditions: read-out: KD (nM) human MRP-14, hS100A9 2 μg/mL coated, TMV 0-5 μg/mL, anti-TMV detection, single-site binding model, estimated
T1 sequence (P06702 1-114): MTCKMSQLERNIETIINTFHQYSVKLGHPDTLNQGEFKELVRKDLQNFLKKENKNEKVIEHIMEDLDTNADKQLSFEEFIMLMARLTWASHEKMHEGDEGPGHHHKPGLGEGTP

[2] = target: T2, mouse MRP-14 (mS100A9) (Mus musculus, UniProt P31725); assay: ELISA-based binding affinity of MRP-14-targeted TMV, mouse protein; conditions: for Kd: read-out: KD (nM) mouse MRP-14, ELISA, mS100A9 2 μg/mL coated, TMV 0-5 μg/mL, anti-TMV detection, single-site binding model, estimated
T2 sequence (P31725 1-113): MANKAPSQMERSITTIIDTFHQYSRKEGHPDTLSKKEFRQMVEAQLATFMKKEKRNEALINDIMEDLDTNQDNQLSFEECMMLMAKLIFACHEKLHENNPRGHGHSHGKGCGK

[3] = tested on: deep vein thrombi in inferior vena cava; assay: Murine DVT model; format: in vivo, mouse; conditions: vs PBS group, 3 h postinjection
[4] = target: T3, His-tagged MRP-14 (myeloid related protein 14) (human, UniProt P06702 1-114); assay: SPR
T3 sequence: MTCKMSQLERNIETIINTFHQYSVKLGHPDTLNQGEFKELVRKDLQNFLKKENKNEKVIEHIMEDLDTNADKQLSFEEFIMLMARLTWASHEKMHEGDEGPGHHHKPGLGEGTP

[5] = target: T4, MRP-8/14 heterodimer (untagged MRP-8 premixed 1:1 with His-tagged MRP-14) (human | , UniProt P06702;P05109); assay: SPR
T4 sequence 1: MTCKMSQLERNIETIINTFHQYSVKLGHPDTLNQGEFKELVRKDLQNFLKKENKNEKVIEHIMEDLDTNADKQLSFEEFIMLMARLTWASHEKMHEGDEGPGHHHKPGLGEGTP
T4 sequence 2: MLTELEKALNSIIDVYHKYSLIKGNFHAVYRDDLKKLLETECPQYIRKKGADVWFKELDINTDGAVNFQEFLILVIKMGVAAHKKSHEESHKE

For “ACNSVHQHHCGGGS-N3 (disulfide) [TMV-MTP6]”, the Kd [1] was 11.4 nM, the “binding affinity, times stronger toward mouse than human MRP-14” value ([2]; ratio of ELISA KD values, mouse vs human MRP-14) was ~ 4 times and the Kd [2] was 2.6 nM.

ASSHIHHGGGS-C [CPMV-MTP2] was tested, and the “reduction in thrombus weight and area” value [3] was 50%.

ASSHIHHGGGS-C [TMV-MTP2] showed a Kd [1] of 13.1 nM and a Kd [2] of 11.9 nM.

With ACNSVHQHHCGGGS [MTP6 synthetic peptide with GGGS spacer] the Kd [4] was 39.6 µM and the Kd [5] was 57.6 µM.

In the case of ACNSHRHGACGGGS-NH2 (disulfide 2-10 (inferred)) [MTP5 synthetic peptide with GGGS spacer], the Kd [4] is reported as 67.6 µM.

For HNHMADPGGGS-NH2 [MTP3 synthetic peptide with GGGS spacer], the Kd [4] was 117 µM.
